The text below walks through data of article PMC10222839, “Development of Novel Small-Molecule Activators of Pyruvate Kinase Muscle Isozyme 2, PKM2, to Reduce Photoreceptor Apoptosis” (Pharmaceuticals, 2023).

Data set [1] relates to cleaved caspase-8-positive cells in the retina. Put plainly: Experimental retinal detachment, flow cytometry of cleaved caspase 8. The data set is classed as in vivo. To be noted: rat retinal detachment, highest dose tested (1 mM final vitreous), intravitreal, 3 days, versus DMSO. An excerpt: Caspase activation, including caspase 8, increases 3 days status post experimental retinal detachment and has been validated to be a marker of photoreceptor apoptosis and the extent of retinal-detachment-induced photoreceptor cell death. Additionally, this caspase activation coincides with the peak of the terminal deoxynucleotidyl transferase dUTP nick end labeling (TUNEL) staining of photoreceptors, specifically after experimental retinal detachment in rodents. So, the detection and quantification of cleaved caspase 8 can be used as a marker of photoreceptor death after experimental retinal detachment and to assess the efficacy of neuroprotective agents. As such, different concentrations of compound 2 or its vehicle, DMSO, were injected at the time of retinal detachment creation in rats, and the retinas were harvested 3 days later to assess caspase 8 activation.
Detachments were created in rats as previously outlined. In brief, rats were anesthetized with ketamine (100 mg/mL) and xylazine (20 mg/mL), and their pupils were dilated as above. […]
After washing the cells in ice-cold PBS, the cells were fixed with 4% paraformaldehyde for 20 min at room temperature followed by two PBS washes via centrifugation at 300× g for 10 min at 4 °C. […] Data were analyzed with FCS Express software (De Novo Software, Ontario, CA, USA).

The next data set deals with T1, human recombinant PKM2 (Homo sapiens, UniProt P14618).
T1 construct: purchased Sigma SAE0021
T1 sequence (P14618 whole entry): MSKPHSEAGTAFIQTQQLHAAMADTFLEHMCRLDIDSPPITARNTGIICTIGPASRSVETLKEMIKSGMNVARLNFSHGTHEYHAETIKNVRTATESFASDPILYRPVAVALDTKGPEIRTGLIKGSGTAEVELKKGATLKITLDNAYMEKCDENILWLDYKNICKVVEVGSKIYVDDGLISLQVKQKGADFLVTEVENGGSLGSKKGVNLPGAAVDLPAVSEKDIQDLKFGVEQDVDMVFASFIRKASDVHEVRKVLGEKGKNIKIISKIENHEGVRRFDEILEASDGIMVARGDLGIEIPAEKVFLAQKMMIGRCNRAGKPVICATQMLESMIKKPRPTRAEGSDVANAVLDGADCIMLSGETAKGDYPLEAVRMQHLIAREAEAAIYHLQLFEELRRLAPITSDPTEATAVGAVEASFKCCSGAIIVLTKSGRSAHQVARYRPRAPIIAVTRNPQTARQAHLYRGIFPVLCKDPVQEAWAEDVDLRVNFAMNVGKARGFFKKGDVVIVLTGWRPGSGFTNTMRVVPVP
Put plainly: Pyruvate kinase enzyme-coupled (LDH/NADH) assay with recombinant PKM2. The data set is classed as biochemical. The method, then: Recombinant Enzyme. An enzyme-coupled assay that measures the depletion of NADH via absorbance at 340 nm and uses lactate dehydrogenase (LDH) was employed to determine the activity of pyruvate kinase (PK). To determine the AC50 (concentration of activator necessary to achieve half-maximal activation) of the different small molecules with PKM2, assays were conducted in a 96-well format using 200 μL/well assay volume with 10 nM human recombinant PKM2 (Sigma, St. Louis, MO, USA, Cat No. SAE0021) or PKM1 (Sigma, […], Cat No. SRP0415), differing concentrations of activator, 0.5 mM PEP, 1 mM ADP, 0.2 mM NADH, and 8 U of LDH in a buffer of 50 mM Tris-HCl (pH 7.4), 100 mM KCl, and 5 mM MgCl2 as previously described. A SPECTROstar Omega plate reader (BMG LABTECH Inc., Cary, NC, USA) monitored absorbance at 340 nm. The MARS software suite was utilized to determine initial velocities. Data were normalized to DMSO (dimethyl sulfoxide)-treated enzyme activity, as previously described.

The subject of the next data set is 661W cells. The data set can be described thus: Cell viability of 661W cells (RealTime-Glo MT). The data set is classed as cell-based. Particulars: for cell viability: in presence of FasL, 48 h, versus vehicle. The method, then: To be confident the pyridazinoindolone core could be utilized in future medicinal chemistry efforts, its photoreceptor neuroprotective effect was assessed. […] Fas signaling has a critical role in caspase activation and photoreceptor apoptosis after experimental retinal detachment. 661W cells die via caspase-mediated mechanisms, and the Fas-ligand (FasL) treatment of these cells leads to the activation of caspases and subsequent death, analogous to the in vivo experimental retinal detachment model. Furthermore, similar to photoreceptors, 661W cells express PKM2 (Figure 4a), and these cells have been used to garner information on the role of metabolism in photoreceptor degeneration. As such, this is a suitable in vitro model of photoreceptor stress that can be utilized to assess the consequences of reprogramming metabolism by pharmacologically activating PKM2 [9]. 661W cells were treated with FasL and either compound 2 or vehicle (DMSO).
A luminescent assay kit (RealTime-Glo MT Cell Viability Assay, Promega, Madison, WI, USA, Cat No. G9711) was utilized to assess cell viability. As above, 661W cells were seeded in 96-well plates (Nunc, Rochester, NY, USA) at 2500 cells/well 1 day before treatment. The 661w cells were also pre-treated with compound 2 or DMSO for 2 h before adding 500 ng/mL FasL and 250 ng/mL HA. Viability was measured 48 h after the addition of these latter reagents. As with the caspase assays, luminescence was monitored via a plate reader luminometer (BMG Labtech, Inc., Cary, NC, USA).

By AC50 is commonly meant the midpoint of the concentration-response curve, whichever way the signal moves. On to `Cn1c2cc([S+](C)[O-])ccc2c2cnn(Cc3cccc(N)c3)c(=O)c21` (stereo not drawn) [Compound 2], for which, in data set [1], the “percentage of cleaved caspase-8-positive cells in the retina” value is on record as “statistically significantly reduced”. In addition, on human recombinant PKM2 (recombinant human PKM2, n = 3, best-fit value ± std. error), the AC50 stood at 50 ± 12 nM. Moreover, the Emax at human recombinant PKM2 (recombinant human PKM2, n = 3, normalized to DMSO-treated enzyme, read-out: Recombinant PKM2 Max Activation) was 292 ± 20%. For the same compound, the cell viability result with 661W cells (200 nM) was “significantly improved”; in the data set on 661W cells (2 μM), “trended towards improved cell viability”. For the same compound, the “cell viability, compound alone” value in the data set with 661W cells (no FasL, concentration near AC50 or more than 10-fold greater) is “no significant effect”.
